Where two headings read alike, the source gives them in different places.

For orientation: IC50 means the concentration that inhibits the measured activity by half.

Assay [1] concerns Wolman fibroblasts. Kind of assay: β-Hexosaminidase (HEXB) release, lysosomal exocytosis. The class given is cell-based, human. The following applies: for lysosomal exocytosis as determined by HEXB secretion: Wolman fibroblasts, FIG. 3; for exocytosis: cyclodextrins, wild type and Wolman cells, assay not stated. As for the experimental part:
Measurement of β-Hexosaminidase (HEXB) Release—Fibroblasts were cultured in 24-well plates at 30,000 cells/well in 0.4 ml medium for one day at 37° C. After being washed twice with the assay buffer (DMEM with 2 mM D-mannose 6-phosphate sodium salt), the cells with 0.4 ml/well the assay buffer were incubated at 37° with 0.2 ml/well compound in assay buffer. […] The rest of assay buffer in the 24-well plate was discarded followed by addition of 0.6 ml 1% Triton-X100 in dH2O to lyse the cells. After incubation at 37° C. for 30 min. 6 μl/well cell lysate were added to the 96-well plate with 24 μl assay buffer followed by 90 μl/well 2.25 mM HEXB substrate, 4-Methylumbelliferyl N-acetyl-β-D-glucosaminide (Sigma-Aldrich, #M2133), in a 25 mM citric acid buffer at pH 4.5. The 96-well plate was then measured in the Tecan fluorescence plate reader (Ex=365±20 nm and Em=460±20 nm) after 1 hr incubation at 37° C. and addition of 100 μl/well stop solution (1 M glycine and 1 M NaOH at pH 10.5).
FIG. 3. […] We measured lysosomal exocytosis in delta-T-treated Wolman fibroblasts by determining the activity of beta-hexosaminidase (HEXB), a lysosomal enzyme, in the extracellular medium.
In brief, the level of lysosomal exocytosis was determined by measuring the level of the lysosomal enzyme HEXB secreted into the culture medium following treatment with drug.

Assay [2] concerns NPC1-NSCs. The experiment in a line: Amplex-red cholesterol assay in NPC1 neural stem cells. The class given is cell-based, human. As for the experimental part:
(§1) Amplex-Red Cholesterol Assay—Total cholesterol in patient cells was measured by the Amplex-Red Cholesterol Assay Kit (Invitrogen). The unesterified cholesterol was determined using the same kit without the enzyme […]. Esterified cholesterol was determined as the difference between the total and unesterified cholesterol values. The cells were seeded to black, tissue culture-treated 96-well, 384-well or 1536-well plates at 4000, 1000, 300 cells/well in 100, 20 or 5 μl medium by a Multidrop Combi dispenser (Thermo Scientific, Waltham, Mass.) and cultured for 24 hr. The assay plates were added with compound dilution in DMSO solution using a Pintool station (Klaypsys, San Diego, Calif.) and cultured for 3 days. The cells were washed twice manually for 96-well or 384-well plates or using a centrifugation method in which the inverted plates were placed on a stack of paper towel and centrifuged at 800 rpm for 1 min followed by addition of 7 μl/well PBS (added gently with a 45 degree angled liquid dispenser (Klaypsys). The cholesterol assay mixture from the kit was added at 100, 20 or 2.5 μl/well for 96-well, 384-well or 1536-well plates and incubated for 1 hr at 37° C. The resulted fluorescence intensity was measured with excitation of 560 (±10) and emission of 590 (±10) in a fluorescence plate reader (Tecan, Durham, N.C.).
(§2) Induced pluripotent stem cells (IPSCs) from the NPC1 skin fibroblasts were generated and differentiated into neural stem cells (NPC1-NSCs).

The subject of assay [3] is mouse model of Niemann Pick Type C (NPC) disease. The following applies: cited from earlier work.
For the next assay, the system named is NPC1 skin fibroblasts. Kind of assay: Cholesterol accumulation (Amplex-red, filipin) and enlarged lysosomes (Lysotracker) in NPC1 skin fibroblasts. The class given is cell-based, human. The following applies: for ranking order of cholesterol reduction effect / cholesterol accumulation: NPC cells. The method, then:
as §1

The subject of assay [4] is Wolman fibroblasts. Kind of assay: Nile Red staining of neutral lipids in Wolman fibroblasts. The following applies: cultured with compound for 3 days.
Experimental: Nile-red Staining—The cells were cultured and treated as described above in 96-well plates. On the experimental day, cells were washed two times with PBS and live-stained with 1 μM Nile-red dye solution (prepared in cell culture medium) at 100 μl/well followed by an incubation at 37° C. for 10 min. After washed twice with PBS, the cells were fixed in 3.2% paraformaldehyde in PBS at 100 μl/well 1 μg/ml Hoechst 33342 (Invitrogen) in PBS and incubation at RT for 30 min. The plate was washed twice with PBS and the images were measured in Incell2000 imaging plate reader with a FTTC filter set (Ex=480±20 nm and Ex=525±36 nm) for the neutral lipids (cholesteryl esters and triglycerides) and a DAPI filter set for Hoechst nuclear staining.
(Nile Red) Cells were cultured in the presence of delta tocopherol, alpha tocopherol and MBCD plus in combination for 3 days and then stained for neutral lipid with Nile red.
Wolman fibroblasts were treated with δ-tocopherol, α-tocopherol, methyl-β-cyclodextrin, or combinations of δ-tocopherol and methyl-β-cyclodextrin or α-tocopherol and methyl-β-cyclodextrin. […] To further characterize the effect of treatment on lipid accumulation, treated fibroblasts were evaluated using a Nile Red assay to measure neutral lipid accumulation. […] The Nile Red staining was visualized by fluorescent microscopy.
The test system of assay [5] is Wolman fibroblasts. The experiment in a line: Amplex-Red cholesterol assay in Wolman fibroblasts. The following applies: for cholesterol accumulation: cyclodextrins alone, other lysosomal storage disorders (FIG. 1). The class given is cell-based, human. As for the experimental part: as §1
Assay [6] deals with NPC1-NSCs. The experiment in a line: Filipin and Lysotracker staining in NPC1 neural stem cells. As to conditions: fluorescence microscopy, FIG. 12B. The class given is cell-based, human. As for the experimental part:
(§3) On the experimental day, cells were live-stained with 100 μl/well 50 nM LysoTracker-Red DND-99 dye (Invitrogen, #L-7528) in medium at 37° C. for 1 hr followed by plate washing twice with PBS. The plate was then fixed in 100 μl/well 3.2% formaldehyde for 1 hr and washed for two times with PBS. […] After washing twice with PBS, the plates were stored at 4° C. until imaging analysis. DAPI filter set and TRITC filter set in the Incell2000 imaging plate reader were used to visualize Hoechst nuclear staining and LysoTracker staining, respectively.
as §2

Assay [7] concerns fibroblasts derived from patients with lysosomal storage diseases. Kind of assay: LysoTracker dye staining of enlarged lysosomes. The class given is cell-based, human. The following applies: for concentration needed for significant effect on reduction of enlarged lysosome size: single compound use, skin fibroblasts of nine lysosomal storage diseases. As for the experimental part: as §3
FIG. 5. […] To test this hypothesis we measured the ability of delta-T to decrease acidic/lysosomal compartment size as determined by LysoTracker staining in fibroblasts derived from patients with six other diseases. Lysosomal storage occurs in these fibroblasts consists of ceroid/lipofuscin in Batten (CLN2), globotriaosylceramide in Fabry, ceramide in Farber, sphingomyelin in NPA, partially degraded heparan sulfate in Sanfilippo type B, and GM2 ganglioside in Tay-Sachs (Table S1).
The effect of various cyclodextrins, δ-tocopherol, and combinations of cyclodextrins and δ-tocopherol on lipid accumulation and lysosome size in wild-type and lysosomal storage disease fibroblasts (Wolman, Tay-Sach, Fabry, Farber, and MPSIIIB fibroblasts) was determined using Lysotracker assay. In brief, cells were treated with various combinations and concentrations of drugs followed by staining with the Lyso tracker dye which is a basophilic fluorescent probe that accumulates in acidic compartments, i.e. lysosomes, within the cell.

For assay [8], the system named is NPC1, Wolman and other lysosome storage disorder fibroblasts. Kind of assay: Electron microscopy of lysosomal ultrastructure. As to conditions: Wolman fibroblasts; FIG. 6.
Experimental: Electron Microscopy—Fibroblast cells were seeded in 6-well plates at 150,000 cells/well in 5 ml medium and cultured for 1 day in the presence or absence of compounds. Cells were fixed in 2% glutaraldehyde, 0.1 M cacodylate buffer, pH 7.2 for 1 hr at room temperature and then stored at 4° C. until TEM analysis was performed. The cells were post fixed in 1% osmium tetroxide in the same buffer for 1 hour and en bloc stained with 0.5% uranyl acetate in 0.1 M acetate buffer, pH 4.2. The cells were then dehydrated in graded ethanol solutions (35%, 50%, 70%, 95% and 100%) and infiltrated overnight in epoxy resin (Poly/Bed 812, Polysciences). After adding fresh pure resin the cell plates were cured for 72 h in 55° C. After removing the polystyrene plates, suitable areas for thin sectioning were selected, cut out with a jewelry saw and glued onto empty resin stubs. About 70 nm thin sections were cut on an ultramicrotome (Leica EM UC6) and mounted on naked copper grids. The thin sections were double stained (uranyl acetate and lead citrate), examined in a Hitachi H-7650 transmission electron microscope, and images were taken using an AMT CCD camera.
The effects of δ-tocopherol and methyl-β-cyclodextrin on the ultrastructural pathology of lysosomes in lysosome storage disorder cells were investigated by electron microscopy. In brief, following treatment of wild-type and lysosome storage disorder fibroblasts with δ-tocopherol, methyl-β-cyclodextrin, or δ-tocopherol and methyl-β-cyclodextrin, the fibroblasts were fixed and embedded. Thin sections of the embedded cells were then prepared and the ultrastructural pathology was examined by electron microscopy. […] The effects of δ-tocopherol and/or methyl-β-cyclodextrin on the ultrastructural pathology of other lysosome disorder fibroblasts-Farber (FIGS. 7,8 and 10); Tay-Sachs (FIG. 8); Fabry (FIG. 8); Wolman (FIG. 9); NPA (FIG. 9); Batten (FIG. 9); MSIIB (FIG. 9)—were analyzed by electron microscopy.
In another assay the test system is primary NPC fibroblasts. The following applies: primary NPC fibroblasts / LSD fibroblast; reported; cited from earlier work.
The subject of a further assay is NPC cells. The following applies: NPC / NPC1 cells; reported; cited from earlier work.
[9] abbreviates: NPC1-NSCs, FIG. 12A, read-out: IC50, Amplex-red cholesterol assay.

On to `COC[C@H]1O[C@@H]2O[C@H]3[C@H](O)[C@@H](OC)[C@@H](O[C@H]4[C@H](O)[C@@H](OC)[C@@H](O[C@H]5[C@H](O)[C@@H](OC)[C@@H](O[C@H]6[C@H](O)[C@@H](OC)[C@@H](O[C@H]7[C@H](O)[C@@H](OC)[C@@H](O[C@H]8[C@H](O)[C@@H](OC)[C@@H](O[C@H]1[C@H](O)[C@H]2OC)O[C@@H]8COC)O[C@@H]7COC)O[C@@H]6COC)O[C@@H]5COC)O[C@@H]4COC)O[C@@H]3COC` [MBCD, Heptakis(2,6-di-o-methyl)-beta-cyclodextrin], for which the “lysosomal exocytosis as determined by HEXB secretion” value in the assay on Wolman fibroblasts [1] was “significant increases in lysosomal exocytosis”. The IC50 in the assay on NPC1-NSCs [2] (setting [9]) worked out at 10 µM. Moreover, the “cholesterol accumulation and neuronal cell loss” value in assay [3] is “reduced cholesterol accumulation and neuronal cell loss”. For the same compound, the “reduction of cholesterol accumulation and enlarged lysosomes” value with NPC1 skin fibroblasts (NPC1 skin fibroblasts, 160 μM MBCD alone, 50 μM HBPCD or 20 μM MBCD with 10 μM delta-tocopherol, FIG. 11) was “almost completely reversed the phenotype”. Besides, the “ranking order of cholesterol reduction effect” value in the assay on NPC1 skin fibroblasts was “MBCD>alpha-CD>gamma-CD”. In addition, the “potency of MBCD relative to HBPCD” value in the assay with NPC1 skin fibroblasts (reduction of cholesterol accumulation and enlarged lysosome size in NPC1 fibroblasts) is “over 30 fold”. The “neutral lipid accumulation (Nile red)” value is recorded as “reduces accumulation of neutral lipids” in the assay on Wolman fibroblasts [4] (FIG. 2) and “significantly reduced” with Wolman fibroblasts [4] (FIG. 2, listed as methyl-β-cyclodextrin). In addition, the “reduction in total cholesterol” value with Wolman fibroblasts [5] (Wolman fibroblasts, FIGS. 1A-1C) is recorded as “significant reduction”. Further, the “reduction in free cholesterol” value in the assay with Wolman fibroblasts [5] (Wolman fibroblasts, FIGS. 1D-1F) is recorded as “significant reduction”. In addition, the cholesterol accumulation result with Wolman fibroblasts [5] is recorded as “most potent”. Further, the “reduction of cholesterol accumulation (filipin staining) and enlarged lysosomes (Lysotracker staining)” value in the assay with NPC1-NSCs [6] was “better than those of delta-tocopherol”. For the same compound, in [7] (NPC1 and Wolman fibroblasts, 40 μM delta-T or 300 μM MBCD), the LysoTracker staining entry was “significantly reduced LysoTracker staining”. For the same compound, the “lipid accumulation and lysosome size (Lysotracker)” value in assay [7] (Wolman, Tay-Sach, Fabry, Farber, MPSIIIB fibroblasts, FIGS. 5A-5D) was “reduced lipid accumulation and lysosome size”. In addition, the “concentration needed for significant effect on reduction of enlarged lysosome size” value in assay [7] was 300 µM. The “abnormal lysosomal structures (electron microscopy)” value in assay [8] is recorded as “significantly reduced”.
In the case of `OC[C@H]1O[C@@H]2O[C@H]3[C@H](O)[C@@H](O)[C@@H](O[C@H]4[C@H](O)[C@@H](O)[C@@H](O[C@H]5[C@H](O)[C@@H](O)[C@@H](O[C@H]6[C@H](O)[C@@H](O)[C@@H](O[C@H]7[C@H](O)[C@@H](O)[C@@H](O[C@H]1[C@H](O)[C@H]2O)O[C@@H]7CO)O[C@@H]6CO)O[C@@H]5CO)O[C@@H]4CO)O[C@@H]3CO` [alpha-CD, α-cyclodextrin], in the assay with Wolman fibroblasts [1], the exocytosis result is “enhance exocytosis”. Also, in the assay on NPC1 skin fibroblasts, the cholesterol accumulation result was “can reduce cholesterol accumulation” and the “ranking order of cholesterol reduction effect” value is given as “MBCD>alpha-CD>gamma-CD”. Further, the cholesterol accumulation result in the assay on Wolman fibroblasts [5] is “can reduce cholesterol accumulation”.
With `OC[C@H]1O[C@@H]2O[C@H]3[C@H](O)[C@@H](O)[C@@H](O[C@H]4[C@H](O)[C@@H](O)[C@@H](O[C@H]5[C@H](O)[C@@H](O)[C@@H](O[C@H]6[C@H](O)[C@@H](O)[C@@H](O[C@H]7[C@H](O)[C@@H](O)[C@@H](O[C@H]8[C@H](O)[C@@H](O)[C@@H](O[C@H]1[C@H](O)[C@H]2O)O[C@@H]8CO)O[C@@H]7CO)O[C@@H]6CO)O[C@@H]5CO)O[C@@H]4CO)O[C@@H]3CO` [beta-CD, β-cyclodextrin], the exocytosis entry with Wolman fibroblasts [1] is “enhance exocytosis”. In addition, the cholesterol accumulation result in the assay on NPC1 skin fibroblasts and in the assay with Wolman fibroblasts [5] was “can reduce cholesterol accumulation” each time. Also, the lysosomal exocytosis entry with primary NPC fibroblasts was “increased exocytosis”.
`COc1cc(/C=C/C(=O)CC(=O)/C=C/c2ccc(O)c(OC)c2)ccc1O` [curcumin]: the “cholesterol efflux, accumulation or storage” value in the assay with NPC cells is listed as “reduce cholesterol storage”.
In the case of `OC[C@H]1O[C@@H]2O[C@H]3[C@H](O)[C@@H](O)[C@@H](O[C@H]4[C@H](O)[C@@H](O)[C@@H](O[C@H]5[C@H](O)[C@@H](O)[C@@H](O[C@H]6[C@H](O)[C@@H](O)[C@@H](O[C@H]7[C@H](O)[C@@H](O)[C@@H](O[C@H]8[C@H](O)[C@@H](O)[C@@H](O[C@H]9[C@H](O)[C@@H](O)[C@@H](O[C@H]1[C@H](O)[C@H]2O)O[C@@H]9CO)O[C@@H]8CO)O[C@@H]7CO)O[C@@H]6CO)O[C@@H]5CO)O[C@@H]4CO)O[C@@H]3CO` [gamma-CD, γ-cyclodextrin], the exocytosis entry in the assay on Wolman fibroblasts [1] is given as “enhance exocytosis”. Also, in the assay on NPC1 skin fibroblasts, the cholesterol accumulation entry is on record as “can reduce cholesterol accumulation” and the “ranking order of cholesterol reduction effect” value is “MBCD>alpha-CD>gamma-CD”. In addition, the cholesterol accumulation entry in the assay with Wolman fibroblasts [5] is “can reduce cholesterol accumulation”.
Take `Cc1c(C)c2c(c(C)c1O)CC[C@@](C)(CCC[C@H](C)CCC[C@H](C)CCCC(C)C)O2` [α-tocopherol]: the “lysosomal exocytosis as determined by HEXB secretion” value in the assay on Wolman fibroblasts [1] is on record as “significant increases in lysosomal exocytosis”. Further, the “neutral lipid accumulation (Nile red)” value is listed as “failed to show any effect” in the assay on Wolman fibroblasts [4] (FIG. 2) and “not as potent” with Wolman fibroblasts [4] (FIG. 2, listed as Alpha Tocopherol).
Take “(2-Hydroxypropyl)-beta-cyclodextrin [HBPCD]”: in the assay with NPC1-NSCs [2], the “potency in NPC1 neuronal cells compared to NPC1 skin fibroblasts” value is on record as “much more potent”. The “cholesterol accumulation, combination therapy experiment” value in the assay on NPC1-NSCs [2] (50 μM HBPCD, 10 μM delta-tocopherol, alone or combined, compared with 5 mM HBPCD) is “did not show the significant cholesterol reduction effect”. In addition, the IC50 in the assay on NPC1-NSCs [2] (setting [9]) was determined as 12 µM; in the assay on NPC1-NSCs [2] (human NPC1 neural stem cells, values given under dosage recommendations, read-out: IC50 on reduction of cholesterol accumulation, Amplex-red cholesterol assay) it was 50 µM. The “ratio of IC50 HBPCD to IC50 delta-tocopherol” value in the assay with NPC1-NSCs [2] (human NPC1 neural stem cells) was 3.3 fold. Besides, the “cholesterol accumulation and neuronal cell loss” value in assay [3] is “reduced cholesterol accumulation and neuronal cell loss”. In the assay on NPC1 skin fibroblasts (NPC1 skin fibroblasts, single use, FIG. 11A), the “concentration needed for reduction of cholesterol accumulation and enlarged lysosomes” value is recorded as “millimolars”. In addition, the “reduction of cholesterol accumulation (filipin staining) and enlarged lysosomes (Lysotracker staining)” value in the assay on NPC1-NSCs [6] was “better than those of delta-tocopherol”. Besides, in [7], the “concentration needed for significant effect on reduction of enlarged lysosome size” value was determined as 8000 µM. For the same compound, in the assay with primary NPC fibroblasts, the lysosomal exocytosis entry was “promote a calcium-dependent lysosomal exocytosis”.
